Laboratory results taken from US20040039054A1, “Use of L-carnitine and derivatives for reducing ceramide levels and potentiating antiretroviral drugs” (SIGMA-TAU INDUSTRIE, priority 1995, published 2004).

Columns and labels:
HIV = test: Viral load in muscle biopsy homogenates of AIDS subjects; format: in vivo; settings: individual patients and group mean
Procedure: The determinations were carried out prior to the combined treatment, while patients were taking only AZT (T0), after 4 weeks of therapy with the L-carnitine-AZT combination (T1) and one month after discontinuation of treatment with L-carnitine (T2), leaving the patients on AZT alone. TCD4 lymphocytes were measured by flow cytometry by means of a specific monoclonal antibody (number of lymphocytes per mm^3) and the apoptotic lymphocytes by flow cytometry after staining with propydium iodide, quantifying the cells with hypodiploid nuclei (number of lymphocytes per 50,000 cells). The viral load (number of viral particles per ml of serum) was determined by quantifying HVI-1 RNA by means of a polymerase chain reaction (Amplicor HIV detection system by Roche). The Wilcoxon test was used for the statistical processing.
(§1) Four subjects with AIDS were treated with 600 mg of AZT daily by mouth. Of these, two were also treated with L-carnitine 3 g daily. The total duration of the treatment was 6 months. Muscle biopsies were performed before and after treatment. The ceramide present at muscle cell level was determined before and after treatment, after sonicating and homogenizing the biopsy material. The viral load was determined in the same muscle homogenates, as described in Example 1.

lymphocyte ceramide = test: Lymphocyte ceramide by DAG (diacylglycerol) kinase assay in AIDS patients; format: in vivo, human
ceramide = test: Ceramide at muscle cell level in muscle biopsy homogenates of AIDS subjects; format: in vivo, human; settings: muscle biopsy before treatment (baseline), individual patients and group mean
Procedure: as §1

Cc1cn([C@H]2C[C@H](N=[N+]=[N-])[C@@H](CO)O2)c(=O)[nH]c1=O [AZT, zidovudine]
Post-treatment HIV (viral particles/mg protein) (HIV; muscle homogenate after 6 months, AZT 600 mg daily by mouth, with or without L-carnitine 3 g daily): 4,950 viral particles/mg protein
Pre-treatment HIV (viral particles/mg protein) (HIV; muscle homogenate before treatment (baseline)): 4,850 viral particles/mg protein
levels of lymphocyte ceramide, T0 (lymphocyte ceramide; T0: prior to combination treatment, patients on AZT only, 13 patients): 48±8 pmol/10^6 lymphocytes
levels of lymphocyte ceramide, T2 (lymphocyte ceramide; T2: one month after discontinuation of L-carnitine, patients on AZT alone): 38±9 pmol/10^6 lymphocytes
Pre-treatment ceramide (pmoL/mg protein) (ceramide): 92 pmoL/mg protein
